Measured values as given in ChEMBL document CHEMBL3045770, “Design and synthesis of some thieno[2,3-c]pyridazine derivatives of expected anticancer activity” (2013).

Legend:
Type in all cases: functional
SK-MEL-2 [1] = test: Cytotoxicity against Homo sapiens (human) SK-MEL-2 cells after 48 hr by SRB assay; conditions: SK-MEL-2, 48 h
A549 = test: Cytotoxicity against Homo sapiens (human) A549 cells after 48 hr by SRB assay; conditions: A549, 48 h
RXF 393 = test: Cytotoxicity against Homo sapiens (human) RXF393 assessed as cell growth at 10 uM after 48 hr by SRB assay relative to control; conditions: RXF 393, 48 h, read-out: Activity
NCI-H522 = test: Cytotoxicity against Homo sapiens (human) NCI-H522 cells after 48 hr by SRB assay; conditions: NCI-H522, 48 h
MDA-MB-435 = test: Cytotoxicity against Homo sapiens (human) MDA-MB-435 assessed as cell growth at 10 uM after 48 hr by SRB assay relative to control; conditions: MDA-MB-435, 48 h, read-out: Activity
SK-MEL-28 = test: Cytotoxicity against Homo sapiens (human) SK-MEL-28 assessed as cell growth at 10 uM after 48 hr by SRB assay relative to control; conditions: SK-MEL-28, 48 h, read-out: Activity
DU-145 = test: Cytotoxicity against Homo sapiens (human) DU145 assessed as cell growth at 10 uM after 48 hr by SRB assay relative to control; conditions: DU-145, 48 h, read-out: Activity
OVCAR-3 = test: Cytotoxicity against Homo sapiens (human) OVCAR3 assessed as cell growth at 10 uM after 48 hr by SRB assay relative to control; conditions: OVCAR-3, 48 h, read-out: Activity
HT-29 = test: Cytotoxicity against Homo sapiens (human) HT-29 assessed as cell growth at 10 uM after 48 hr by SRB assay relative to control; conditions: HT-29, 48 h, read-out: Activity
LOX IMVI [2] = test: Cytotoxicity against Homo sapiens (human) LOXIMVI assessed as cell growth at 10 uM after 48 hr by SRB assay relative to control; conditions: read-out: Activity
OVCAR-8 = test: Cytotoxicity against Homo sapiens (human) OVCAR8 cells after 48 hr by SRB assay; conditions: OVCAR-8, 48 h
COLO 205 = test: Cytotoxicity against Homo sapiens (human) COLO205 cells after 48 hr by SRB assay; conditions: COLO 205, 48 h
SNB-19 = test: Cytotoxicity against Homo sapiens (human) SNB19 cells after 48 hr by SRB assay; conditions: SNB-19, 48 h
SK-MEL-2 [3] = test: Cytotoxicity against Homo sapiens (human) SK-MEL-2 assessed as cell growth at 10 uM after 48 hr by SRB assay relative to control; conditions: SK-MEL-2, 48 h, read-out: Activity
LOX IMVI [4] = test: Cytotoxicity against Homo sapiens (human) LOXIMVI cells after 48 hr by SRB assay
UACC-62 = test: Cytotoxicity against Homo sapiens (human) UACC62 assessed as cell growth at 10 uM after 48 hr by SRB assay relative to control; conditions: UACC-62, 48 h, read-out: Activity
SK-MEL-5 = test: Cytotoxicity against Homo sapiens (human) SK-MEL-5 assessed as cell growth at 10 uM after 48 hr by SRB assay relative to control; conditions: SK-MEL-5, 48 h, read-out: Activity
786-0 = test: Cytotoxicity against Homo sapiens (human) 786-0 assessed as cell growth at 10 uM after 48 hr by SRB assay relative to control; conditions: 786-0, 48 h, read-out: Activity
SK-OV-3 = test: Cytotoxicity against Homo sapiens (human) SKOV3 assessed as cell growth at 10 uM after 48 hr by SRB assay relative to control; conditions: SK-OV-3, 48 h, read-out: Activity
M14 = test: Cytotoxicity against Homo sapiens (human) M14 cells after 48 hr by SRB assay; conditions: M14, 48 h
UO-31 = test: Cytotoxicity against Homo sapiens (human) UO31 cells after 48 hr by SRB assay; conditions: UO-31, 48 h
HCC 2998 = test: Cytotoxicity against Homo sapiens (human) HCC2998 assessed as cell growth at 10 uM after 48 hr by SRB assay relative to control; conditions: HCC 2998, 48 h, read-out: Activity
RPMI-8226 = test: Cytotoxicity against Homo sapiens (human) RPMI8226 assessed as cell growth at 10 uM after 48 hr by SRB assay relative to control; conditions: RPMI-8226, 48 h, read-out: Activity
SF-539 = test: Cytotoxicity against Homo sapiens (human) SF539 assessed as cell growth at 10 uM after 48 hr by SRB assay relative to control; conditions: SF-539, 48 h, read-out: Activity
U-251 = test: Cytotoxicity against Homo sapiens (human) U251 assessed as cell growth at 10 uM after 48 hr by SRB assay relative to control; conditions: U-251, 48 h, read-out: Activity
EKVX = test: Cytotoxicity against Homo sapiens (human) EKVX cells after 48 hr by SRB assay
ACHN = test: Cytotoxicity against Homo sapiens (human) ACHN assessed as cell growth at 10 uM after 48 hr by SRB assay relative to control; conditions: read-out: Activity
MDA-MB-468 = test: Cytotoxicity against Homo sapiens (human) MDA-MB-468 cells after 48 hr by SRB assay; conditions: MDA-MB-468, 48 h
HOP-62 = test: Cytotoxicity against Homo sapiens (human) HOP62 assessed as cell growth at 10 uM after 48 hr by SRB assay relative to control; conditions: HOP-62, 48 h, read-out: Activity
[5] = read-out: LC50 (the source's name)

SMILES: Oc1c(-c2nnc(-c3ccc(Cl)cc3)o2)sc2nnc(-c3ccccc3)c(-c3ccccc3)c12
- GI50 (SK-MEL-2 [1]): 4.13 µM
- TGI (SK-MEL-2 [1]): 8.23 µM
- GI50 (A549): 4.65 µM
- TGI (A549): 14.8 µM
- CC50 (A549; [5]): 0.0183 µM
- growth at 10 µM (RXF 393): 72.3%
- GI50 (NCI-H522): 4.34 µM
- TGI (NCI-H522): 9.76 µM
- growth at 10 µM (MDA-MB-435): 58.6%
- growth at 10 µM (SK-MEL-28): 71.8%
- growth at 10 µM (DU-145): 71.9%
- growth at 10 µM (OVCAR-3): 26%
- growth at 10 µM (HT-29): 91.2%
- growth at 10 µM (LOX IMVI [2]): 28.1%
- GI50 (OVCAR-8): 4.38 µM
- TGI (OVCAR-8): 18.3 µM
- CC50 (OVCAR-8; [5]): 0.0183 µM
- GI50 (COLO 205): 4.7 µM
- TGI (COLO 205): 18.3 µM
- CC50 (COLO 205; [5]): 0.0183 µM
- GI50 (SNB-19): 4.7 µM
- TGI (SNB-19): 18.3 µM
- growth at 10 µM (SK-MEL-2 [3]): 87.1%
- GI50 (LOX IMVI [4]): 3.73 µM
- TGI (LOX IMVI [4]): 9.47 µM
- CC50 (LOX IMVI [4]; [5]): 0.0183 µM
- growth at 10 µM (UACC-62): 38%
- growth at 10 µM (SK-MEL-5): 53.7%
- growth at 10 µM (786-0): 61.1%
- growth at 10 µM (SK-OV-3): 61.9%
- GI50 (M14): 4.99 µM
- TGI (M14): 12.2 µM
- GI50 (UO-31): 3.62 µM
- TGI (UO-31): 6.22 µM
- growth at 10 µM (HCC 2998): 54.7%
- growth at 10 µM (RPMI-8226): 40.4%
- growth at 10 µM (SF-539): 55%
- growth at 10 µM (U-251): 32.6%
- GI50 (EKVX): 4.05 µM
- TGI (EKVX): 11.2 µM
- CC50 (EKVX; [5]): 0.0183 µM
- growth at 10 µM (ACHN): 54%
- GI50 (MDA-MB-468): 5.04 µM
- TGI (MDA-MB-468): 10.5 µM
- growth at 10 µM (HOP-62): 51.2%
